From PubChem BioAssay (NCI)
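Dose response: 5 concentrations. Exposure: 48 h. Format: 96-well plates. Endpoint: linear interpolation; highest concentration if not reached. TGI is the concentration that stops growth completely.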

Assays:
Assay in all cases: growth of human tumour cells (NCI), 48 h
[1] = test system: HL-60(TB) leukemia
[2] = test system: EKVX NSCLC
[3] = test system: MALME-3M melanoma
[4] = test system: K-562 leukemia
[5] = test system: UACC-257 melanoma
[6] = test system: HOP-62 NSCLC
[7] = test system: MOLT-4 leukemia
[8] = test system: ACHN renal
[9] = test system: NCI-H460 lung
[10] = test system: T-47D breast
[11] = test system: SK-MEL-28 melanoma
[12] = test system: TK-10 renal
[13] = test system: MCF7 breast
[14] = test system: SW-620 colon
[15] = test system: A549 NSCLC
[16] = test system: HCT-15 colon
[17] = test system: NCI/ADR-RES ovarian
[18] = test system: SF-268 CNS
[19] = test system: LOX IMVI melanoma
[20] = test system: HOP-92 NSCLC

Structure (SMILES)	TGI [1] [µM]	TGI [2] [µM]	TGI [3] [µM]	TGI [4] [µM]	TGI [5] [µM]	TGI [6] [µM]	TGI [7] [µM]	TGI [8] [µM]	TGI [9] [µM]	TGI [10] [µM]	TGI [11] [µM]	TGI [12] [µM]	TGI [13] [µM]	TGI [14] [µM]	TGI [15] [µM]	TGI [16] [µM]	TGI [17] [µM]	TGI [18] [µM]	TGI [19] [µM]	TGI [20] [µM]
CC(C(O)Cc1ccccc1)N(C)N=Nc1ccc([N+](=O)[O-])cc1 (stereo not given)	> 100	73.2	43.3	> 100	45.4	37.5	> 100	77	32.3	74.5	39.9	47.7	80.6	60.6	72	61	39.9	47.3		
Nc1ccc(S(=O)(=O)Nc2nccs2)cc1	> 100	> 100	> 100	> 100	> 100	> 100	> 100	> 100	> 100	> 100	> 100	> 100	> 100	> 100	> 100	> 100	> 100	> 100	> 100	
NC(CCC(=O)NC(CSCC1C(=O)Nc2ccccc21)C(=O)NCC(=O)O)C(=O)O (stereo not given)	47.5	31.2	20		19.5	38.6	12.8	20	37.2	> 23.3	14.5	18.9	17.5	10.7	19.7	11	19.7	15.5	2.78	9.55
C=CC[C@]12C=C(OC)[C@@H](O)[C@](OC)(C(c3cc(OC)c4c(c3)OCO4)[C@H]1C)[C@H]2OC(C)=O (stereo not given in full)	> 100	> 100	> 100	> 100	> 100	> 100	> 100	> 100	> 100	> 100	> 100	> 100	> 100	> 100	> 100	> 100	> 100	> 100		> 100
O=c1oc2ccc([N+](=O)[O-])cc2c(Nc2ccc3c(c2)Oc2ccccc2O3)c1[N+](=O)[O-]	40.2	> 100	> 100	86.7	76.6	> 100		> 100	> 100	> 100	> 100	> 100	67.5		> 100	> 100	> 100	> 100	94	54.1
C=C([C@@]1(O)C[C@H]2[C@H](CCC2(OC)OC)[C@@H]2c3ccccc3O[C@@H]21)[Si](C)(C)C	98.6	> 100		> 100	> 100	> 100	> 100	> 100	> 100	> 100	> 100	> 100	> 100	> 100	> 100	> 100	> 100	> 100	> 100	> 100
N#CC1=C(N)N(c2ccccc2)C(c2ccccc2)C1(C#N)C#N (stereo not given)	43.9	43.8	35.6	26.5	34.9	36.8	31.7	40.7		24.4	31.1	31.8	31.7	37.2	45.2	51.1	45.3	55.4	30.3	
CN1C2CCC1CC(C)(O)C2 (stereo not given)	> 100	> 100	> 100	> 100	> 100	> 100	> 100		> 100	> 100	> 100	> 100	> 100	> 100		> 100	> 100	> 100	> 100	
Oc1cccc(-c2nc3cc(F)ccc3s2)c1	61	32.5	48.6	> 100	34.3		59	71.3	55.4	14.2	50.3	37.4	51.4	> 100	88.5	56.4	54.3	65.6	34.7	
CN(C)c1ccc(C2SCC(=O)N2c2ccc(Oc3ccc(Cl)cc3)c(Cl)c2)cc1 (stereo not given)	58.7	60.5	38.4		> 100	41	> 100	> 100	49.4	61	> 100	> 100	89.3	> 100	60.3	55.8	50.7	37.9	39.5	45.8
[N-]=[N+]=NC1=C(c2ccccn2)C(=O)c2cccc3cccc1c23	> 100		> 100	> 100	98.4	> 100	6.16	> 100	> 100	> 100	> 100	> 100	> 100	> 100	> 100	> 100	> 100	65.9	> 100	> 100
CC(C)(C)C(=O)CC1=Nc2ccccc2SC1(O)CC(=O)C(C)(C)C (stereo not given)	80.2	59.6	> 100	97.1	> 100	76.2	24.3	70.2	38.5	67.8	66	> 100	61.2	> 100	51	52.8	66.8	81.1	49.4	
CCC/C(Cl)=N\OC(=O)Nc1ccc(OC(F)(F)F)cc1	> 20.6	40.1	4.22	> 20.1	39.8	35.5	4.59	4.41	40.1	7.65	41.9	12.4	40.3		42.3		> 25.3	> 84.7	8.78	4.48
